# Data published in US20170007605A1, “Method of Optimizing the Treatment of Philadelphia-positive Leukemia with Abl Tyrosine Kinase Inhibitors” (Novartis AG, priority 2006, published 2017).
# Values joined by “and” are separate entries in the source; they are usually repeats but may differ in a detail not shown here. Equal entries are not always repeated.
# Assays:
# [1] = in patients; cited from earlier work
# [2] = Plasma trough levels (Cmin) of Imatinib and CGP74588, IRIS study (LC/MS/MS); type: in vivo
# [3] = tested on: CML-CP patients; experiment: CCR and MMR rates by steady-state Imatinib trough level quartile, IRIS study; type: in vivo, human
# Experimental: Rates of CCR (defined as 0% Ph+ metaphase cells out of at least 20 examined) in the study population and major molecular response (MMR, defined as ≧3 log reduction in BCR-ABL/BCR ratio from a standardized baseline) in subjects who achieved CCR before were reported previously (O'Brien S G, Guilhot F, Larson R A, et al., see above).
# CCR were evaluated up to 5 years.
# [4] = tested on: newly diagnosed patients with CML in chronic phase (CML-CP); conditions: cited from earlier work
# [5] = Trough plasma Imatinib concentrations at steady-state, Bordeaux study (HPLC-ESI-MS/MS)
# [6] = tested on: CML patients; experiment: Cytogenetic (CCR) and molecular (MMR) response to Imatinib mesylate therapy and ROC curve analysis, Bordeaux study; type: in vivo, human; conditions: of 68 CML patients, after at least one year's treatment, 400 or 600 mg once daily
# Experimental: The cytogenetic response to Imatinib mesylate therapy was assessed using a conventional cytogenetic analysis of bone marrow metaphases. Cytogenetic responders were defined as having CCR, i.e. 0 percent of Philadelphia-chromosome-positive metaphases among at least 25 cells in metaphase in the bone marrow aspirate (Colombat M, Fort M P, Chollet C, et al. Haematologica 2006; 91:162-8.). Real-time quantitative reverse-transcriptase polymerase chain reaction assay was used to assess BCR-ABL transcript levels and quantify the molecular response (Colombat M, Fort M P, Chollet C, et al. see above). Briefly, EDTA-anticoagulated peripheral blood was collected to perform RNA extraction followed by real-time quantitative reverse-transcriptase polymerase chain reaction. […] Quantification of BCR-ABL transcripts was performed according to recommendations recently proposed for harmoniza-tion of results (Hughes T P, Deininger M, Hochhaus A, et al. Blood 2006; 108:28-37.). […] A standardized baseline was calculated by measuring the ratio of BCR-ABL/ABL in 40 chronic-phase CML patients from blood collected before any treatment. […]
# Any relationship between BCR-ABL transcript levels and the range time from date of Imatinib mesylate treatment initiation to date of molecular analysis was evaluated.
# Results were expressed as adjusted odds ratio; 95 percent confidence interval; P value of Wald test.
# [7] = Day 29, Quartiles 2 and 3, N = 178
# [8] = five year follow-up, first-line imatinib
# [9] = 400 mg daily, 50 patients, steady-state
# [10] = 600 mg daily, 18 patients, steady-state
# [11] = patients without MMR (34 patients)
structure (smiles),measurement,setting,value
"Cc1ccc(NC(=O)c2ccc(CN3CCNCC3)cc2)cc1Nc1nccc(-c2cccnc2)n1 [CGP74588, N-{5-[4-(piperazino-methyl)-benzoylamido]-2-methylphenyl}-4-(3-pyridyl)-2-pyrimidine-amine]",Metabolite level as share of the parent drug plasma level,[1],~20%
same,"Steady-state trough level, mean (±SD)","[2]; Day 29, 400 mg daily, overall N = 351",241.9±105.5 ng/mL and 242 (±105.5) ng/mL
same,"CGP74588/Imatinib trough concentration ratio, mean (±SD)","[2]; Day 29, Quartile 1, N = 87",0.32 (±0.106)
same,"Steady-state trough level, mean (±SD)","[2]; Day 29, Quartile 1, N = 87",153 (±48.5) ng/mL
same,"CGP74588/Imatinib trough concentration ratio, mean (±SD)","[2]; Day 29, Quartile 4, N = 86",0.21 (±0.052)
same,"Steady-state trough level, mean (±SD)","[2]; Day 29, Quartile 4, N = 86",343 (±126.1) ng/mL
same,"CGP74588/Imatinib trough concentration ratio, mean (±SD)",[2]; [7],0.27 (±0.068)
same,"Steady-state trough level, mean (±SD)",[2]; [7],236 (±65.8) ng/mL
same,24-hour trough concentration after the first dose,"[2]; first 400 mg dose, Day 2, mean±SD",82.7 ± 47.4 ng/mL
same,Contribution of the metabolite to Imatinib exposure,[2]; in vivo,< 20%
same,Spearman correlation coefficient between parent drug and metabolite levels,[2]; in vivo,0.76
same,Accumulation ratio to steady state,[2]; trough levels on days 2 and 29 in the same subject,3.38±1.54
"Cc1ccc(NC(=O)c2ccc(CN3CCN(C)CC3)cc2)cc1Nc1nccc(-c2cccnc2)n1 [Imatinib, 4-(4-methylpiperazin-1-ylmethyl)-N-[4-methyl-3-(4-(pyridin-3-yl)pyrimidin-2-ylamino)phenyl]-benzamide]",MMR (%) in pts with CCR,"[3]; 1 year, Quartile 1",43%
same,CCR rate,"[3]; 1 year, Quartile 1 (n = 87)",59%
same,MMR (%) in pts with CCR,"[3]; 1 year, Quartile 4",55%
same,CCR rate,"[3]; 1 year, Quartile 4 (n = 86)",73%
same,MMR (%) in pts with CCR,"[3]; 1 year, Quartiles 2 and 3",56%
same,CCR rate,"[3]; 1 year, Quartiles 2 and 3 (n = 178)",71%
same,CCR rate,"[3]; 2 years, Quartile 1",73%
same,MMR (%) in pts with CCR,"[3]; 2 years, Quartile 1",63%
same,CCR rate,"[3]; 2 years, Quartile 4",84%
same,MMR (%) in pts with CCR,"[3]; 2 years, Quartile 4",86%
same,CCR rate,"[3]; 2 years, Quartiles 2 and 3",80%
same,MMR (%) in pts with CCR,"[3]; 2 years, Quartiles 2 and 3",78%
same,CCR rate,"[3]; 4 years, Quartile 1",81%
same,MMR (%) in pts with CCR,"[3]; 4 years, Quartile 1",65%
same,CCR rate,"[3]; 4 years, Quartile 4",89%
same,MMR (%) in pts with CCR,"[3]; 4 years, Quartile 4",90%
same,CCR rate,"[3]; 4 years, Quartiles 2 and 3",87%
same,MMR (%) in pts with CCR,"[3]; 4 years, Quartiles 2 and 3",83%
same,Time to CCR,[3]; Quartile 1,8.3 Month
same,Time to MMR in pts with CCR,[3]; Quartile 1,16.7 months
same,Time to CCR,[3]; Quartile 4,5.6 Month
same,Time to CCR,[3]; Quartiles 2 and 3,5.7 Month
same,"Estimated MMR rate, all patients","[3]; at 1 year, Imatinib levels <647 ng/mL",25%
same,"Estimated MMR rate, all patients","[3]; by 4 years, Q1",53%
same,"Estimated MMR rate, all patients","[3]; by 4 years, Q4",80%
same,"Estimated MMR rate, all patients","[3]; by 4 years, inter-quartile range (IQ)",72%
same,"Estimated MMR rate, all patients","[3]; within 1 year, patients with higher Imatinib levels",40%
same,Efficacy compared with IFN+Ara-C,"[4]; 400 mg daily, newly diagnosed CML-CP",superior efficacy to IFN+Ara-C
same,Estimated cumulative rate of complete cytogenetic response (CCR),[4]; [8],87%
same,Overall survival,[4]; [8],89%
same,"Trough plasma Imatinib concentration, mean value","[5]; 400 mg daily Imatinib mesylate, 50 patients, steady-state",1058 ng per millilitre
same,"Trough plasma Imatinib concentration, Q 25 (first quartile)",[5]; [9],722 ng per millilitre
same,"Trough plasma Imatinib concentration, Q 75 (third quartile)",[5]; [9],1285 ng per millilitre
same,"Trough plasma Imatinib concentration, maximum",[5]; [9],2947 ng per millilitre
same,"Trough plasma Imatinib concentration, median",[5]; [9],997 ng per millilitre
same,"Trough plasma Imatinib concentration, minimum",[5]; [9],181 ng per millilitre
same,"Trough plasma Imatinib concentration, Q 25 (first quartile)",[5]; [10],902 ng per millilitre
same,"Trough plasma Imatinib concentration, Q 75 (third quartile)",[5]; [10],1629 ng per millilitre
same,"Trough plasma Imatinib concentration, maximum",[5]; [10],2922 ng per millilitre
same,"Trough plasma Imatinib concentration, median",[5]; [10],1315 ng per millilitre
same,"Trough plasma Imatinib concentration, minimum",[5]; [10],603 ng per millilitre
same,Mean (±SD) trough plasma Imatinib concentration,[5]; patients with CCR (56 patients),1123.3±616.6 ng per millilitre
same,Median trough plasma Imatinib concentration,[5]; patients with MMR (34 patients),1350.2 ng per millilitre
same,Mean (±SD) trough plasma Imatinib concentration,[5]; patients without CCR (12 patients),694.2±556.0 ng per millilitre
same,Mean (±SD) trough plasma Imatinib concentration,[5]; [11],869.3±427.5 ng per millilitre
same,Median trough plasma Imatinib concentration,[5]; [11],885.5 ng per millilitre
same,Number of patients who achieved a CCR,[6],56
same,"Steady-state trough level, mean (±SD)","[2]; Day 29, Quartile 1, N = 87",490 (±119.7) ng/mL
same,"Steady-state trough level, mean (±SD)","[2]; Day 29, Quartile 4, N = 86",1661 (±602.0) ng/mL
same,"Steady-state trough level, mean (±SD)",[2]; [7],889 (±148.2) ng/mL
same,"Imatinib trough exposure (Cmin), mean","[2]; Day 29, patients who achieved CCR",1009 ± 544 ng/mL and 1009 ng/mL
same,"Imatinib trough exposure (Cmin), mean","[2]; Day 29, patients who did not achieve CCR",812 ± 409 ng/mL and 812 ng/mL
same,Increase in trough level,"[2]; age from 20 years to 70 years, linear relationship assumed",295 ng/mL
same,Plasma trough level,"[2]; females, steady state",1078 ± 514.5 ng/mL
same,concentration at 24 h,"[2]; human, plasma, first 400 mg dose, Day 2, mean±SD, read-out: 24-hour trough concentration after the first dose",518 ± 370 ng/mL
same,Plasma trough level,"[2]; males, steady state",921 ± 530.8 ng/mL
same,"Difference in plasma trough level, females vs males",[2]; steady state,17.2%
same,Estimated decrease in trough level,"[2]; weight increase from 40 kg to 120 kg, linear relationship assumed",approximately 280 ng/ml
